Source: US8530177B2, “Chloral hydrate detection” (Randox Laboratories Limited, priority 2010, dated 2013)
In brackets after ≈: the same amount, converted by molar mass.

How the values were obtained:
[1] = metabolite of chloral hydrate; cited from earlier work
[2] = tested on: antibody of the invention (polyclonal IgG raised against Immunogen II, TCG-BTG); assay: Competitive ELISA for TCG: cross-reactivity and specificity of the antibody; type: binding, sheep; conditions: for IC50 = standard concentration which produces 50% B/B0: hapten A-HRP conjugate
Experimental: TCG was coupled to bovine thyroglobulin (Immunogen II, Example 5). The resulting immunogen was administered to adult sheep on a monthly basis to provide target-specific polyclonal antisera. IgG was extracted from the antisera via caprylic acid/ammonium sulphate precipitation of immunoglobulin. Microtitre plates (Thermo Scientific, 468667) were coated with antibody (125 μl) in coating buffer (10 mM Tris pH 8.5) at 37° C. for 2 hours. Antibody was coated at 1.25 μg/ml. The plates were then washed. 50 μl of sample/standard (trichloroethyl glucuronide, Randox LK811; chloral hydrate, Sigma C8383-100 g; trichloroacetic acid, Fisher Scientific T/3000/50; ETG, Randox LK589) was added to the appropriate wells in triplicate, followed by 75 μl of hapten A-HRP conjugate at ¼K and incubated at 25° C. for 1 hour. The plates were then washed and 125 μl of TMB (Randox, 4380-15) was added to each well and left at room temperature for 20 mins in the dark. The reaction was stopped using 125 μl of 0.2M sulphuric acid. The absorbances were read at 450 nm with an ELISA microplate reader (BIO-TEK Instruments, Elx800) and the means calculated. Antibody specificity and sensitivity were then determined.
Competitive ELISA results in the Table 1 below highlight the specificity of the antibody of the invention towards TCG.

[3] = twenty four hours following a single oral dose; cited from earlier work
[4] = average person, drinking water guidance; cited from earlier work

SMILES | % CR = percentage cross-reactivity based on 100% specificity to TCG ([2]; competitive ELISA) | IC50 = standard concentration which produces 50% B/B0 ([2]; competitive ELISA) | % B/B0 ([2]; standard 31.25 ng/ml) [%] | A450 (absorbance at 450 nm) ([2]; standard 31.25 ng/ml) | % B/B0 ([2]; standard 62.5 ng/ml) [%] | A450 (absorbance at 450 nm) ([2]; standard 62.5 ng/ml) | % B/B0 ([2]; standard 125 ng/ml) [%] | A450 (absorbance at 450 nm) ([2]; standard 125 ng/ml) | % B/B0 ([2]; standard 250 ng/ml) [%] | A450 (absorbance at 450 nm) ([2]; standard 250 ng/ml) | % B/B0 ([2]; standard 500 ng/ml) [%] | A450 (absorbance at 450 nm) ([2]; standard 500 ng/ml) | % B/B0 ([2]; standard 1000 ng/ml) [%] | A450 (absorbance at 450 nm) ([2]; standard 1000 ng/ml) | % B/B0 ([2]; standard 2000 ng/ml) [%] | A450 (absorbance at 450 nm) ([2]; standard 2000 ng/ml) | also measured
O=C(O)C(Cl)(Cl)Cl [Trichloroacetic Acid, trichloroacetic acid] | <<0.69% | >>2000 ng/ml | 91.2 | 1.372 | 92.5 | 1.391 | 92.4 | 1.389 | 87.2 | 1.312 | 85.4 | 1.284 | 81.8 | 1.230 | 72.7 | 1.094 | half-life [1]: approximately 4 days
CCO[C@@H]1O[C@H](C(=O)O)[C@@H](O)[C@H](O)[C@H]1O [EtG, ethyl glucuronide] | <<0.69% | >>2000 ng/ml | 86.7 | 1.183 | 83.9 | 1.144 | 84.8 | 1.157 | 82.8 | 1.130 | 80.2 | 1.094 | 75.6 | 1.031 | 69.6 | 0.950 | cross-reactivity with the antibody of the invention (in words) ([2]; competitive ELISA, Table 1): does not cross-react
O=C(O)[C@H]1O[C@@H](OCC(Cl)(Cl)Cl)[C@H](O)[C@@H](O)[C@@H]1O [TCG, trichloroethanol glucuronide] | 100% | 13.724 ng/mL (≈ 0.0422 µM) |  |  |  |  |  |  |  |  |  |  |  |  |  |  | % B/B0 ([2]; standard 1.25 ng/ml): 86.6%; A450 (absorbance at 450 nm) ([2]; standard 1.25 ng/ml): 1.313; % B/B0 ([2]; standard 2.5 ng/ml): 81.0%; A450 (absorbance at 450 nm) ([2]; standard 2.5 ng/ml): 1.228; % B/B0 ([2]; standard 5 ng/ml): 70.0%; A450 (absorbance at 450 nm) ([2]; standard 5 ng/ml): 1.061; % B/B0 ([2]; standard 10 ng/ml): 57.5%; A450 (absorbance at 450 nm) ([2]; standard 10 ng/ml): 0.872; % B/B0 ([2]; standard 20 ng/ml): 42.3%; A450 (absorbance at 450 nm) ([2]; standard 20 ng/ml): 0.641; % B/B0 ([2]; standard 40 ng/ml): 30.7%; A450 (absorbance at 450 nm) ([2]; standard 40 ng/ml): 0.465; % B/B0 ([2]; standard 80 ng/ml): 24.6%; A450 (absorbance at 450 nm) ([2]; standard 80 ng/ml): 0.373
OC(O)C(Cl)(Cl)Cl [Chloral Hydrate, 2,2,2-trichloroethanediol] |  |  |  |  |  |  |  |  |  |  |  |  |  |  |  |  | excreted in the urine as TCG [3]: ~28%; excreted in the urine as trichloroethanol [3]: approximately 0.7%; Tolerable Daily Intake (TDI) [4]: 0.3 mg/day
